Tested on in one assay: not listed separately
Put plainly: DRUGMATRIX: Calcium Channel Type L, Benzothiazepine radioligand binding (ligand: [3H] Diltiazem). It counts as cell membranes, Rattus norvegicus, Wistar, Brain, Membrane. Particulars: Not Active = under 50% inhibition at 10 µM.
Chain of Beta-1 adrenergic receptor (P08588 whole entry): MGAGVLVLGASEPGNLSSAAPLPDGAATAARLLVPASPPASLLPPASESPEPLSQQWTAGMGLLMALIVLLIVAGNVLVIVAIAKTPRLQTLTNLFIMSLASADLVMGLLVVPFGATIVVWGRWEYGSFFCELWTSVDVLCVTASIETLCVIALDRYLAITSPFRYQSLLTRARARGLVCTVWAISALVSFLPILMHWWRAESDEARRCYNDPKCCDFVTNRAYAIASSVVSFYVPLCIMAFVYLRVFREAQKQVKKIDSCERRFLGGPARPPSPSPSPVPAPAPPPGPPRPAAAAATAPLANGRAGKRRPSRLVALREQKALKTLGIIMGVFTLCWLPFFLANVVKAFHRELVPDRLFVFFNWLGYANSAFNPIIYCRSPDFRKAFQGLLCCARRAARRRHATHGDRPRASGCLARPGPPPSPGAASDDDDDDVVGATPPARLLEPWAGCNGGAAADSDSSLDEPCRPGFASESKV
Chain of Sigma non-opioid intracellular receptor 1 (Q99720 whole entry): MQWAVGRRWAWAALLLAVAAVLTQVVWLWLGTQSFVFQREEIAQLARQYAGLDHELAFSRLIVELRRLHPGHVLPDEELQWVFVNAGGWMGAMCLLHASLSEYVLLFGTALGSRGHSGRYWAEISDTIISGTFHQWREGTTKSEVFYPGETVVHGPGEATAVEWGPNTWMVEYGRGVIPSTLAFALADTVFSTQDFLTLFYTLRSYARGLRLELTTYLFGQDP
`COc1ccc(C(CN(C)C)C2(O)CCCCC2)cc1` (configuration not stated) [VENLAFAXINE]: the IC50 result is “Not Active” and the Ki result is reported as “Not Active”.

In a further assay the target is 5-hydroxytryptamine receptor 6 (Homo sapiens, UniProt P50406). It counts as cell membranes, HeLa, Membrane. Particulars: hela. Further: in other assays of this panel Not Active means under 50% inhibition at 10 µM.
Chain of 5-hydroxytryptamine receptor 6 (P50406 whole entry): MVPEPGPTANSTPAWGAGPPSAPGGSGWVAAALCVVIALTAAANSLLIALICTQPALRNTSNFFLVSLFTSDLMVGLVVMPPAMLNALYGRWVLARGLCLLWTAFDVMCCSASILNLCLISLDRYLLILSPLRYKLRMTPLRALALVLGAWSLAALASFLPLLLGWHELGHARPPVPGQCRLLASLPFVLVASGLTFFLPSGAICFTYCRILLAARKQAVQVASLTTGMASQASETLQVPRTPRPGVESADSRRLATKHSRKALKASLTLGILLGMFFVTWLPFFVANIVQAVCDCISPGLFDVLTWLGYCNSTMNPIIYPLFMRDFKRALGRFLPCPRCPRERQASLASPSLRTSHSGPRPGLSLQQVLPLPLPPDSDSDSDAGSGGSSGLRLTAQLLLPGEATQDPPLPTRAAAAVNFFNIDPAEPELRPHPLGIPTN
On to `COc1cccc(C2(O)CCCCC2CN(C)C)c1` (configuration not stated) [TRAMADOL], for which the IC50 entry is given as “Not Active”.

For `O=C(CCCN1CCC(O)(c2ccc(Cl)cc2)CC1)c1ccc(F)cc1` [HALOPERIDOL], the IC50 result was “Not Active”.

In the case of `COc1ccc(C(CN(C)C)C2(O)CCCCC2)cc1` (configuration not stated) [VENLAFAXINE], the IC50 result is on record as “Not Active”.

Tested on in the next assay: not listed separately
Description: DRUGMATRIX: GABAA, Muscimol, Central radioligand binding (ligand: [3H] Muscimol). In kind it is cell membranes, Rattus norvegicus, Wistar, Brain, Membrane. As to conditions: Not Active = under 50% inhibition at 10 µM.
For `COc1ccc(C(CN(C)C)C2(O)CCCCC2)cc1` (configuration not stated) [VENLAFAXINE], the IC50 entry is “Not Active” and the Ki result was “Not Active”.

The next assay deals with Kappa-type opioid receptor (Homo sapiens, UniProt P41145). Description: DRUGMATRIX: Opiate kappa (OP2, KOP) radioligand binding (ligand: [3H] Diprenorphine). In kind it is cell membranes, HEK293, Membrane. As to conditions: hek293; Not Active = under 50% inhibition at 10 µM.
Chain of Kappa-type opioid receptor (P41145 whole entry): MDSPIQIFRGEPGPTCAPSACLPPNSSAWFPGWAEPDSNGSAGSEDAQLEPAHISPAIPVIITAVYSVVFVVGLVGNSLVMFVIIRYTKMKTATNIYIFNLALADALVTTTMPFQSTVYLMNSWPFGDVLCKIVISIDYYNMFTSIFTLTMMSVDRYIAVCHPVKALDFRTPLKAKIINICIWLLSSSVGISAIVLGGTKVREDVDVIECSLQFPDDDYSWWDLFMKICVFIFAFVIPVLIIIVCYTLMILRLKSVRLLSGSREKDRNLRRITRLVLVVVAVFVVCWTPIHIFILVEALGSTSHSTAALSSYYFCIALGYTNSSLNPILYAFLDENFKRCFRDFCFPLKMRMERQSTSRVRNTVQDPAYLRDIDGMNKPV
`O=C(CCCN1CCC(O)(c2ccc(Cl)cc2)CC1)c1ccc(F)cc1` [HALOPERIDOL]: the IC50 result is “Not Active”.

Tested on in another assay: not listed separately
Description: DRUGMATRIX: ATPase, Na+/K+ enzyme inhibition (substrate: ATP). It counts as tissue-based, Sus scrofa, Heart. As to conditions: Not Active = under 50% inhibition at 10 µM.
Regarding `COc1ccc(C(CN(C)C)C2(O)CCCCC2)cc1` (configuration not stated) [VENLAFAXINE], the IC50 entry is listed as “Not Active” and the Ki result is “Not Active”.

Tested on in another assay: not listed separately
Put plainly: DRUGMATRIX: Nicotinic Acetylcholine radioligand binding (ligand: [125I] Epibatidine). As to conditions: imr-32; Not Active = under 50% inhibition at 10 µM. It counts as cell membranes, Membrane.
On to `COc1ccc(C(CN(C)C)C2(O)CCCCC2)cc1` (configuration not stated) [VENLAFAXINE], for which the IC50 result was “Not Active” and the Ki entry is reported as “Not Active”.

Tested on in the next assay: not listed separately
Put plainly: DRUGMATRIX: Glutamate, Kainate radioligand binding (ligand: [3H] Kainic acid). As to conditions: Not Active = under 50% inhibition at 10 µM. It counts as cell membranes, Rattus norvegicus, Wistar, Brain, Membrane.
For the molecule `COc1ccc(C(CN(C)C)C2(O)CCCCC2)cc1` (configuration not stated) [VENLAFAXINE], the IC50 entry is recorded as “Not Active” and the Ki entry is given as “Not Active”.

Tested on in the next assay: not listed separately
Description: DRUGMATRIX: Calcium Channel Type L, Phenylalkylamine radioligand binding (ligand: [3H] (-)-Desmethoxyverapamil (D-888)). As to conditions: Not Active = under 50% inhibition at 10 µM. In kind it is cell membranes, Rattus norvegicus, Wistar, Brain, Membrane.
On to `COc1ccc(C(CN(C)C)C2(O)CCCCC2)cc1` (configuration not stated) [VENLAFAXINE], for which the IC50 result is recorded as “Not Active” and the Ki entry is “Not Active”.

Another assay deals with Melanocortin receptor 4 (Homo sapiens, UniProt P32245). In kind it is cell membranes, Membrane. As to conditions: hek293.
Chain of Melanocortin receptor 4 (P32245 whole entry): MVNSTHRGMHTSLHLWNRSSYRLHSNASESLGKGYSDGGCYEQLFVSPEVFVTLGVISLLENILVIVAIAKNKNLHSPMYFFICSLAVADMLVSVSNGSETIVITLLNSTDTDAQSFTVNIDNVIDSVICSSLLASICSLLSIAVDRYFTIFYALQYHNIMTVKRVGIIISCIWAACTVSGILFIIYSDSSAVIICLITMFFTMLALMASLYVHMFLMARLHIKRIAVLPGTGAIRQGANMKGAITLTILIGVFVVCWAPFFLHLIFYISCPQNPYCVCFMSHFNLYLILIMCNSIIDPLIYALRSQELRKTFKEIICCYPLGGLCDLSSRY
As for `COc1cccc(C2(O)CCCCC2CN(C)C)c1` (configuration not stated) [TRAMADOL], the IC50 result is “Not Active”.

As to `O=C(CCCN1CCC(O)(c2ccc(Cl)cc2)CC1)c1ccc(F)cc1` [HALOPERIDOL], the IC50 entry is reported as “Not Active”.

As to `COc1ccc(C(CN(C)C)C2(O)CCCCC2)cc1` (configuration not stated) [VENLAFAXINE], the IC50 entry is “Not Active”.

Another assay concerns the target Beta-1 adrenergic receptor (Homo sapiens, UniProt P08588). Description: DRUGMATRIX: Adrenergic beta1 radioligand binding (ligand: [125I] Cyanopindolol). It counts as cell membranes, CHO-K1, Membrane. As to conditions: cho-k1; Not Active = under 50% inhibition at 10 µM.
Regarding `COc1cccc(C2(O)CCCCC2CN(C)C)c1` (configuration not stated) [TRAMADOL], the IC50 result was “Not Active”.

As for `O=C(CCCN1CCC(O)(c2ccc(Cl)cc2)CC1)c1ccc(F)cc1` [HALOPERIDOL], the IC50 result is on record as “Not Active”.

On to `COc1ccc(C(CN(C)C)C2(O)CCCCC2)cc1` (configuration not stated) [VENLAFAXINE], for which the IC50 entry was “Not Active”.

A further assay addresses T1, Alpha-1B adrenergic receptor (Rattus norvegicus, UniProt P15823).
T1 sequence (P15823 whole entry): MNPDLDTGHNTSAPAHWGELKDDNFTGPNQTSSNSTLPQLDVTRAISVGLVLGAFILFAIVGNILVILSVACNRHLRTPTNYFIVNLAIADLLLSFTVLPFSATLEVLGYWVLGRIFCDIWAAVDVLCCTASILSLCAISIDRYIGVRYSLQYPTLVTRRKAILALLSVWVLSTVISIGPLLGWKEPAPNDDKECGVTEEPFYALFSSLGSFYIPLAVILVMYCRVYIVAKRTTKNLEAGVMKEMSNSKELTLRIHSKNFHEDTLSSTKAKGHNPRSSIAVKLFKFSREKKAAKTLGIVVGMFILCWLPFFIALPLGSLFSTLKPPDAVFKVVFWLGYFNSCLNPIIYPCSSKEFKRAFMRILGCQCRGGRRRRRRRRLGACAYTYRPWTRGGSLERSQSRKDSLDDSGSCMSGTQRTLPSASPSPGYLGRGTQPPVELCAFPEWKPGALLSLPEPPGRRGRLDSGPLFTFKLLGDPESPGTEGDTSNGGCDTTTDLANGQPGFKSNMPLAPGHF
Description: DRUGMATRIX: Alpha-1B adrenergic receptor radioligand binding (ligand: prazosin). In kind it is cell membranes, Wistar, Liver, Membrane. Particulars: Not Active = under 50% inhibition at 10 µM.
Take `COc1ccc(C(CN(C)C)C2(O)CCCCC2)cc1` (configuration not stated) [VENLAFAXINE]: the IC50 result was “Not Active”.

Another assay has as its target T2, Endothelin-1 receptor (Homo sapiens, UniProt P25101). Further: in other assays of this panel Not Active means under 50% inhibition at 10 µM.
T2 sequence (P25101 whole entry): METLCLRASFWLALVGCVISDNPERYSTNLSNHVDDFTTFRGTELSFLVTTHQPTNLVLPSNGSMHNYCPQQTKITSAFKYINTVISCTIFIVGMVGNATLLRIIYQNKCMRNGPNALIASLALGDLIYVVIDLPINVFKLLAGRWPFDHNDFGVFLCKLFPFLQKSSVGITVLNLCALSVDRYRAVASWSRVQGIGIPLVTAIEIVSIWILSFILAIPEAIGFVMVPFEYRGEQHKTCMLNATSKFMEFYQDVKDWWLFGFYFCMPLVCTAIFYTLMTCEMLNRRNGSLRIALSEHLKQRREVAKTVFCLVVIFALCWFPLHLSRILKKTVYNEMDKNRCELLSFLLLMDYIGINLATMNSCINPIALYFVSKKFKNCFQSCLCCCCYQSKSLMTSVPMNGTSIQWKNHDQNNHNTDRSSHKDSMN
It counts as cell membranes, Membrane. Particulars: cho-k1.
Consider `COc1cccc(C2(O)CCCCC2CN(C)C)c1` (configuration not stated) [TRAMADOL], for which the IC50 result is “Not Active”.

As to `O=C(CCCN1CCC(O)(c2ccc(Cl)cc2)CC1)c1ccc(F)cc1` [HALOPERIDOL], the IC50 result was “Not Active”.

On to `COc1ccc(CCN2CCC(Nc3nc4ccccc4n3Cc3ccc(F)cc3)CC2)cc1` [ASTEMIZOLE], for which the IC50 entry is listed as “Not Active”.

In the case of `COc1ccc(C(CN(C)C)C2(O)CCCCC2)cc1` (configuration not stated) [VENLAFAXINE], the IC50 result is listed as “Not Active”.

A further assay deals with T3, 5-hydroxytryptamine receptor 2C (Homo sapiens, UniProt P28335).
T3 sequence (P28335 whole entry): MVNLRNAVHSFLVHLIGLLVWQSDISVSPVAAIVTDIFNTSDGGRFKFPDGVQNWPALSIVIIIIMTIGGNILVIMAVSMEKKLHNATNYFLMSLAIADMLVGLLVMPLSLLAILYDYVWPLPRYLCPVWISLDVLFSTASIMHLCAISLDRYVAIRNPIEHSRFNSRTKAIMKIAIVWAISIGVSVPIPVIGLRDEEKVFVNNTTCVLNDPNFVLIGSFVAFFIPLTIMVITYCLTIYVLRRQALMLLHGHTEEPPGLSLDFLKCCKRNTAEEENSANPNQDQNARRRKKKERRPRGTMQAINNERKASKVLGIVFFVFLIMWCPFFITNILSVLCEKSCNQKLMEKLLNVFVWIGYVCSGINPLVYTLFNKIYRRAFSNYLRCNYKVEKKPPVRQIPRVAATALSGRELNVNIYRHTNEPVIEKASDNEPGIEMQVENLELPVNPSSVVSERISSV
Description: DRUGMATRIX: Serotonin (5-Hydroxytryptamine) 5-HT2C radioligand binding (ligand: [3H] Mesulergine). In kind it is cell membranes, CHO-K1, Membrane. As to conditions: cho-k1; Not Active = under 50% inhibition at 10 µM.
With `COc1cccc(C2(O)CCCCC2CN(C)C)c1` (configuration not stated) [TRAMADOL], the IC50 entry is “Not Active”.

In the case of `COc1ccc(C(CN(C)C)C2(O)CCCCC2)cc1` (configuration not stated) [VENLAFAXINE], the IC50 entry is recorded as “Not Active”.

A further assay concerns the target Sigma non-opioid intracellular receptor 1 (Homo sapiens, UniProt Q99720). Description: DRUGMATRIX: Sigma1 radioligand binding (ligand: [3H] Haloperidol). It counts as cell membranes, Jurkat, Membrane. As to conditions: jurkat; Not Active = under 50% inhibition at 10 µM.
With `COc1cccc(C2(O)CCCCC2CN(C)C)c1` (configuration not stated) [TRAMADOL], the IC50 entry was “Not Active”.

On to `COc1ccc(C(CN(C)C)C2(O)CCCCC2)cc1` (configuration not stated) [VENLAFAXINE], for which the IC50 result was “Not Active”.

Tested on in another assay: not listed separately
Put plainly: DRUGMATRIX: Serotonin (5-Hydroxytryptamine) 5-HT3 radioligand binding (ligand: [3H] GR-65630). It counts as cell membranes, Membrane. Particulars: hek293; Not Active = under 50% inhibition at 10 µM.
As to `COc1ccc(C(CN(C)C)C2(O)CCCCC2)cc1` (configuration not stated) [VENLAFAXINE], the IC50 entry is listed as “Not Active” and the Ki result is on record as “Not Active”.

A further assay addresses T4, Neuropeptide Y receptor type 2 (Homo sapiens, UniProt P49146).
T4 sequence (P49146 whole entry): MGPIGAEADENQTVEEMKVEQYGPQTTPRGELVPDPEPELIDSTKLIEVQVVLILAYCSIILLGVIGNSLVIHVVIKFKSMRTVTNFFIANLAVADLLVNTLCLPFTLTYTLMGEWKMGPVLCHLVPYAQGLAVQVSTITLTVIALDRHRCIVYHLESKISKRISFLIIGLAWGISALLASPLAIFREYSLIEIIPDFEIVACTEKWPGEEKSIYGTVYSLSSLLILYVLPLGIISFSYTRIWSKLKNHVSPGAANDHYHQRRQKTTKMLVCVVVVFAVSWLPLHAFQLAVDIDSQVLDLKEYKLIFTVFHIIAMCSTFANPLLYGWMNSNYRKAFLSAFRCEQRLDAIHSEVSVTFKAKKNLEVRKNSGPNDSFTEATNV
It counts as cell membranes, Membrane. As to conditions: kan-ts.
For the molecule `COc1cccc(C2(O)CCCCC2CN(C)C)c1` (configuration not stated) [TRAMADOL], the IC50 entry was “Not Active”.

Turning to `O=C(CCCN1CCC(O)(c2ccc(Cl)cc2)CC1)c1ccc(F)cc1` [HALOPERIDOL], the IC50 result is on record as “Not Active”.

For the molecule `COc1ccc(CCN2CCC(Nc3nc4ccccc4n3Cc3ccc(F)cc3)CC2)cc1` [ASTEMIZOLE], the IC50 entry is “Not Active”.

Take `COc1ccc(C(CN(C)C)C2(O)CCCCC2)cc1` (configuration not stated) [VENLAFAXINE]: the IC50 result is listed as “Not Active”.

Source of the values: ChEMBL document CHEMBL1909046, “DrugMatrix in vitro pharmacology data”.
